Experimental data as given in patent US10752626B2, “Iso-citrate dehydrogenase (IDH) inhibitor” (SHANGHAI METON PHARMACEUTICAL CO., LTD, priority 2016, dated 2020).

Biological target: IDH1 R132C (Homo sapiens (Human), UniProt O75874, R132C)
Test: Improved cell-based assay: D-2-HG in HT1080 cells over-expressing D-2-HG dehydrogenase
Conditions: 12 h
Excerpt: The present disclosure also provides a cell based method for assaying IDH inhibition and selectivity of the compounds in human fibrosacoma cell line HT1080 and cholangiocarcinoma cell line HCCC 9810, which harbor endogenous heterozygous IDH1 R132C and R132H mutation respectively and accumulate D-2-HG Tumor derived IDH mutant lost its normal activity of producing α-KG and gained a new activity of producing D-2-HG D-2-HG is a metabolite specifically elevated in IDH mutated tumor samples.
By treating HT1080 and HCCC 9810 cells with an effective IDH inhibitor, the synthesis of D-2-HG is blocked, and D-2-HG concentration is decreased by the oxidation reaction catalyzed by D-2-HG dehydrogenase.
To perform a cell based IDH inhibitor assay, HT1080 and HCCC 9810 cells (or other cell lines harboring different IDH mutations) are cultured in DMEM supplemented with 10% FBS. The cells are treated with compounds of present disclosure at various different concentration. At various time points (between 4-24 hours) after the treatment, cell culture supernatants were removed and cells were washed with PBS for one or two times. Cell metabolites are extracted by adding 80% methanol (pre-chilled under −80° C.) in the cells, extract at 4° C. temperature for 60 min, centrifuged to remove any insoluble component. Metabolites (clear supernatant from the previous step) are lyophilized and reconstituted in pyridine containing 20 mg/ml O-methoxyamineHCl and are incubated at 70° C. for 40 minutes. After cooling down to room temperature, MTBSTFA (N-tert-Butyldimethylsilyl-N-methyltrifluoroacetamide, Sigma Aldrich) is added at a volume ratio of 4:7 (e.g., 20 μL MTBSTFA to 35 μL 20 mg/ml O-methoxyamineHCl solution) and derivation is performed at 70° C. for 30 minutes. The derived metabolites including D-2-HG are analyzed by Agilent 7890A-5750 GC/MS system. […] of the derived metabolite is injected into Agilent 7890A-5750 for D-2-HG concentration analysis. GC oven temperature is programmed from 140° C. to 260° C. at 10° C./min, from 260° C. to 310° C. at 8° C./min and hold at 310° C. for 5 min. The flow rate of carrier gas is 1 ml/min. The mass spectrometer is operated in the electron impact (EI) mode at 70 eV D-2-HG is normalized to endogenous glutamate.
The activity of IDHs in the presence of each compounds at different concentrations can be represented by relative D-2-HG concentration to negative control samples, and the IC50 value, the inhibition and selectivity for each compound can be evaluated.
The present disclosure also provides an improved cell-based assay for IDH inhibition and selectivity of the compounds, which involves stably over-expressing D-2-HG dehydrogenase in HT1080 and HCCC 9810 cells.
According to previous report, over expression of D-2-HG dehydrogenase decreases the half-life of D-2-HG in HT1080 cells (FIGS. 2A and 2B) [“D-2-hydroxyglutarate is essential for maintaining oncogenic property of mutant IDH-containing cancer cells but dispensable for cell growth”, Ma, S., et al., Oncotarget, (2015)], making the cells more sensitive to D-2-HG synthesis blockage by mutant IDH1 inhibitors. It will greatly increase the sensitivity and accurateness of this cell based assay. In the improved cell-based assay, all other steps are performed as disclosed in Test 6.
The D-2-HG inhibition activity of compounds was also assessed in the improved cell-based assay according to the method disclosed in Test 7 of the Biological evaluation section. HT1080 cells over-expressing D-2-HG dehydrogenase were cultured in 35 mm plate and treated with each of Compounds 1-37 at a concentration of 0.5 μM, 1 μM, 2.5 μM and 5 μM for 12 h, respectively, and the D-2-HG concentration was analysed. The inhibition ratio of D-2-HG in HT1080 cell by the exemplary Compounds 16, 21-24 and 31 at different concentrations were shown in Table 10.

IDH1 R132C, sequence (O75874 2-414 R132C): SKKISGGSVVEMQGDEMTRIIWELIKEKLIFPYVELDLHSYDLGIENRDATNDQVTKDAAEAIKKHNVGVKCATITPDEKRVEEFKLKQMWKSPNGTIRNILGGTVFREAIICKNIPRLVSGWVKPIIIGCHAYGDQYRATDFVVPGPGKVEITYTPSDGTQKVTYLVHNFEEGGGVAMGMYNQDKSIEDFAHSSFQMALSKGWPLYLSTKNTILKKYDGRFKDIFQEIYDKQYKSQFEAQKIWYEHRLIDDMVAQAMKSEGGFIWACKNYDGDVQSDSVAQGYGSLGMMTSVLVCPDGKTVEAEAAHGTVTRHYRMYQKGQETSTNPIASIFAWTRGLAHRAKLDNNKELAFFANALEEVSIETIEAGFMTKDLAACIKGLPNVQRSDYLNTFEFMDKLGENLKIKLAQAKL

| SMILES | Inhibition ratio of D-2-HG in HT1080 cell (0.5 μM) | Inhibition ratio of D-2-HG in HT1080 cell (1 μM) | Inhibition ratio of D-2-HG in HT1080 cell (2.5 μM) | Inhibition ratio of D-2-HG in HT1080 cell (5 μM) |
| --- | --- | --- | --- | --- |
| CCN1Cc2c(ccnc2N[C@@H](C)c2ccc(Oc3ccccc3)c(F)c2)C1=O [Compound 23, (S)-2-ethyl-4-((1-(3-fluoro-4-phenoxyphenyl)ethyl)amino)-2,3-dihydro-1H-pyrrolo[3,4-c]pyridin-1-one] | 12.5% | 30.7% | 68.3% | 76.7% |
| CCN1Cc2c(ccnc2N[C@@H](C)c2ccc(Oc3ccc(C)cc3)cc2)C1=O [Compound 16, (S)-2-ethyl-4-(1-(4-(p-tolyloxy)phenyl)ethylamino)-2,3-dihydro-1H-pyrrolo [3,4-c]pyridin-1-one] | 51% | 60.2% | 67% | 82.2% |
